Here are results for 4 compounds from ChEMBL document CHEMBL1139319, “Notoamides F-K, prenylated indole alkaloids isolated from a marine-derived Aspergillus sp” (J Nat Prod, 2008).

Values after ≈ are worked out from the molar mass of the structure shown. Bounds are passed on as bounds.

In general, IC50 refers to the concentration at which inhibition is half-maximal. Low values mean greater potency in that assay, high ones weaker potency in that assay.

The assay relates to HeLa. Nature of the assay: Cytotoxicity against human HeLa cells after 3 days by MTT assay. The conditions noted are these: 72 h. It is filed as functional, cell-based. In general terms: Tetrazolium assays rely on reduction of a dye to a coloured formazan, in cell work by metabolically active cells.
In the case of `CO[C@H]1c2c([nH]c3c4c(ccc23)OC(C)(C)C=C4)C(C)(C)[C@@H]2C[C@]34CCCN3C(=O)[C@]12NC4=O` [NOTOAMIDE F], the IC50 was over 50 µg/mL.
Take `CC1(C)C=Cc2c(ccc3c4c([nH]c23)C(C)(C)[C@@H]2C[C@]35CCCN3C(=O)[C@]2(NC5=O)C4=O)O1` [NOTOAMIDE I]: the IC50 is 21 µg/mL (≈ 47.1 µM).
Then `C=CC(C)(C)[C@]1(C[C@@H]2NC(=O)[C@@H]3CCCN3C2=O)C(=O)Nc2cc(O)ccc21` [NOTOAMIDE J], with over 50 µg/mL; and `C=CC(C)(C)[C@@]12Nc3c(ccc4c3C=CC(C)(C)O4)[C@]1(O)C[C@]1(O)C(=O)N3CCC[C@H]3C(=O)N21` [NOTOAMIDE K], with over 50 µg/mL.
